Reference: ChEMBL document CHEMBL3861947 (Medchemcomm, 2016)

Columns and labels:
[1] = tested on: Homo sapiens; assay: Effect on hemoglobin levels in stage 3 and 4 chronic kidney disease patient at 200 to 700 mg administered for 28 days measured on day 29 (reference value: 9.91 g/dl); type: functional
[2] = tested on: Homo sapiens; assay: Increase in hemoglobin levels in stage 3, 4, 5 chronic kidney disease patient at 200 to 700 mg administered for 28 days measured on day 29 relative to control; type: functional
[3] = tested on: Homo sapiens; assay: Increase in hemoglobin levels in stage 5D chronic kidney disease patient at 200 to 700 mg administered for 28 days measured on day 29 relative to control; type: functional
[4] = molecular target: Prolyl hydroxylase EGLN2 (Homo sapiens, UniProt Q96KS0); assay: Inhibition of recombinant human HIF-PHD1 expressed in insect Sf9 cells using biotinyl-DLDLEMLAPYIPMDDDFQL as substrate after 60 mins by DELFIA
Sequence of Prolyl hydroxylase EGLN2 (Q96KS0 whole entry): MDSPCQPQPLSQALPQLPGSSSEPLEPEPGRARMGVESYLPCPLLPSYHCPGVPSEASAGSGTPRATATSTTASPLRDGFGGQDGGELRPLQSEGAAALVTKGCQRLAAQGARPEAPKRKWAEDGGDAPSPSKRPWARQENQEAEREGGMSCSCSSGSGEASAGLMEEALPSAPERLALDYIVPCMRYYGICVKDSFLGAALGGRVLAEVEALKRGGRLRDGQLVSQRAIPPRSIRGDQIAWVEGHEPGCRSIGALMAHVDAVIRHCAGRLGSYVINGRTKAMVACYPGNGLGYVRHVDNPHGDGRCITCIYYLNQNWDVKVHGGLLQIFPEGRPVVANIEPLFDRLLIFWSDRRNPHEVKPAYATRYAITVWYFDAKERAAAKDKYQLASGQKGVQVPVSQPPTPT

[5] = molecular target: Prolyl hydroxylase EGLN3 (Homo sapiens, UniProt Q9H6Z9); assay: Inhibition of recombinant human HIF-PHD3 expressed in insect Sf9 cells using biotinyl-DLDLEMLAPYIPMDDDFQL as substrate after 60 mins by DELFIA
Sequence of Prolyl hydroxylase EGLN3 (Q9H6Z9 whole entry): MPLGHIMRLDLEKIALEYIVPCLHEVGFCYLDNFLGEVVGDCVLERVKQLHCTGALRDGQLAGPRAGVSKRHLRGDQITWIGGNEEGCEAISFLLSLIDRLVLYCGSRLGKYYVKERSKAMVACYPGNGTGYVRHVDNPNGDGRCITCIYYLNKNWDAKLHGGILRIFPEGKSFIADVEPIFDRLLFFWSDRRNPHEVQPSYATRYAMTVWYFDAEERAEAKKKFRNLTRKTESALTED

[6] = molecular target: Egl nine homolog 1 (Homo sapiens, UniProt Q9GZT9); assay: biochemical
Sequence of Egl nine homolog 1 (Q9GZT9 whole entry): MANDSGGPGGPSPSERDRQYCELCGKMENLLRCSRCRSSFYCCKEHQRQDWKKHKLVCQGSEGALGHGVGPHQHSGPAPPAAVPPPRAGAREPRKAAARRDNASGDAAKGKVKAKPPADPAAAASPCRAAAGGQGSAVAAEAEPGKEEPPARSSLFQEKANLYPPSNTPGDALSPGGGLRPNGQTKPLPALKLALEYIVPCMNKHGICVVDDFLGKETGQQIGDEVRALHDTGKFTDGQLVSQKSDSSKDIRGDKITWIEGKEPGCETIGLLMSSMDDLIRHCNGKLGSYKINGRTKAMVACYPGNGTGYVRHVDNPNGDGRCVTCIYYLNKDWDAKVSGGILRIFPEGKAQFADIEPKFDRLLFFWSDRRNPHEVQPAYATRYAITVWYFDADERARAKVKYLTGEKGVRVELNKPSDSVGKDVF

[7] = tested on: Homo sapiens; assay: Increase in endogenous erythropoietin levels in human administered as single oral dose relative to control; type: functional
[8] = tested on: Homo sapiens; assay: Increase in hemoglobin levels in renal anemia patient at 40 to 120 mg administered for 4 weeks; type: functional

O=C(O)CNC(=O)c1ncc(-c2cccc(Cl)c2)cc1O
Activity [1]: 10.54 g/dL

O=C(O)CNC(=O)C1C(=O)N(C2CCCCC2)C(=O)N(C2CCCCC2)C1=O [DAPRODUSTAT]
Activity [2]: 63 - 91% | Activity [3]: 71 - 89%

Oc1c(-n2ccnn2)cnn1-c1cc(N2CCOCC2)ncn1 [MOLIDUSTAT SODIUM]
IC50 [4]: 0.48 µM | IC50 [5]: 0.45 µM | IC50 [6]: 0.28 µM

Cc1nc(C(=O)NCC(=O)O)c(O)c2ccc(Oc3ccccc3)cc12 [ROXADUSTAT]
fold change (FC) [7]: <=8 | Activity [8]: >=1 g/dl
